Here are results for 86 compounds from PubChem BioAssay AID651672 (The Scripps Research Institute Molecular Screening Center, 2012).

The target of this assay is Perilipin-1 (Homo sapiens) (UniProt O60240). The experiment in a line: ABHD5 and perilipin-1 interaction blockers – biochemical, luminescence, counter-screen for ABHD5-PLIN5 interaction inhibitor project, dose response (AID 651672).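 Also: split Gaussia luciferase complementation between ABHD5 and PLIN1 fusion fragments.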 Particulars: ABHD5-PLIN1 interaction.
Perilipin-1 (Homo sapiens), sequence (O60240 whole entry, looked up, the tested form may be a part): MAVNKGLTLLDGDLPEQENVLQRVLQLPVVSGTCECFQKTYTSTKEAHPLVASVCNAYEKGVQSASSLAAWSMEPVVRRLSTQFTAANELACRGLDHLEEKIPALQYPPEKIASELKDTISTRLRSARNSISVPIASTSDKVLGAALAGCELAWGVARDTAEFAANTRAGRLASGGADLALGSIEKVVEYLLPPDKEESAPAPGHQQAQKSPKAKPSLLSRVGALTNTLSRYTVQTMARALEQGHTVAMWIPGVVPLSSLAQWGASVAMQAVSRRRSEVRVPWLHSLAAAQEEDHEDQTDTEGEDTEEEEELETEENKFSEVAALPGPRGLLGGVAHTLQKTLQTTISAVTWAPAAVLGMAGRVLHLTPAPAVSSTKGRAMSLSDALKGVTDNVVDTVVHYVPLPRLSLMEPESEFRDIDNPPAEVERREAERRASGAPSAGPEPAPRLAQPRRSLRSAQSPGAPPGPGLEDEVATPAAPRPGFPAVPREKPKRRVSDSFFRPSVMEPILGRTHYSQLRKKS

Activity calls are given as the source filed them. No rule for the calls is given here.

`CC(C)(C)NC(=O)C(c1ccc(-c2ccccc2)cc1)n1c(=O)c(-c2ccco2)nc2ccccc21` (stereo unspecified): the IC50 was 1.67 µM.
As for `CCCCCNC(=O)C(c1ccc(OC)cc1)n1c(=O)c(-c2ccco2)nc2ccccc21` (stereo unspecified), the figure is 1.41 µM; as for `O=C(C[n+]1cccc(CNC(=O)c2ccc(OC(F)F)cc2)c1)Nc1cccc(C(F)(F)F)c1`, “inactive”.
As for `C=C[C@]1(C)C[C@@H](OC(=O)CSCCN(CC)CC)[C@]2(C)C(C)CC[C@]3(CCC(=O)[C@H]32)[C@@H](C)[C@@H]1O` (stereo partly specified), the entry is “inactive”.
As for `O=C1C(=O)c2c(C(=O)c3ccccc3)coc2-c2ccccc21`, the figure is 4.97 µM; as for `CCN(CC)CCOCCOC(=O)C1(c2ccccc2)CCCC1`, 1.87 µM.
Turning to `COc1ccccc1/C=C/C(=O)c1ccccc1`, the IC50 was 6.05 µM.
As for `CCN(CC)CCOc1ccc(/C(=C(\Cl)c2ccccc2)c2ccccc2)cc1`, the figure is 2.23 µM; as for `CCOC(=O)C1CCCN(C(=O)c2cc(Nc3ccc(OC)cc3)nc3ccccc23)C1` (stereo unspecified), “inactive”; as for `CCCCCNC(=O)C(C1CC1)n1c(=O)c(-c2ccco2)nc2ccccc21` (stereo unspecified), 6.58 µM.
For `CN1C(=O)/C(=C/C=C/c2ccco2)C(=O)NC1=S`, the IC50 was 5.88 µM.
For `CCCc1nnc(NC(=O)c2nc(S(=O)(=O)Cc3cccc(C)c3)ncc2Cl)s1`, the IC50 was 2.83 µM.
Under `CN(C)CCCN(C(=O)CCc1ccccc1)c1nc2ccc(Br)cc2s1` stands 8.53 µM.
Under `CC(O)CC(=O)OC[C@]12CC[C@H]3[C@@](C)(CC[C@H]4C(C)(C)CCC[C@]34C)[C@@H]1CC(C1=CC(=O)OC1O)O2` (stereo partly specified) stands 1.25 µM.
Under `CC1=CC(C)(C)Nc2ccc(OC(=O)c3cccnc3)cc21` stands 1.93 µM.
Take `NC(=O)C(C(=O)/C=C/c1ccc(Cl)cc1)=C1SCCS1`: the IC50 result was “inactive”.
As for `Oc1c(C(c2ccccc2)N2CCCCC2)ccc2ccccc12` (stereo unspecified), the figure is 1.01 µM; as for `CC1=CC(C)(C)Nc2ccc(OC(=O)CN3C(=O)C4CCCCC4C3=O)cc21` (stereo unspecified), 2.3 µM.
As for `O=C(Nc1ccc(Cl)cc1)/C(=C/c1cccc(O)c1)c1nc2ccccc2s1`, the figure is 1.68 µM; as for `CCOC1=CC2=C(C(=O)C(Cl)=CC2=O)[C@@H]2CN(S(=O)(=O)c3ccc(C)cc3)[C@@H](c3ccccc3)[C@H]12`, 1.35 µM; as for `Cc1cc(C)c(NC(=O)CN2CCN3CCCC3C2)c(C)c1` (stereo unspecified), “inactive”.
As for `CC(C)(C)NC(=O)C(c1ccncc1)n1c(=O)c(-c2ccco2)nc2ccccc21` (stereo unspecified), the figure is 2.42 µM; as for `Cc1ccc(SC2=C(Sc3ccc(C)cc3)C(=O)c3ccccc3C2=O)cc1`, 6.71 µM; as for `O=C(Cn1c(=O)n(Cc2ccco2)c(=O)c2c3c(sc21)CCCC3)Nc1ccccc1`, 8.69 µM.
Consider `CC(C)(C)NC(=O)C(c1cccc2ccccc12)n1c(=O)c(-c2ccco2)nc2ccccc21` (stereo unspecified), for which the IC50 was 2.04 µM.
Under `O=S(=O)(NC1=NCCCCC1)c1ccc2sc(NS(=O)(=O)c3ccc4ccccc4c3)nc2c1` stands “inactive”.
As for `NC(=O)CCN1CCN(CCOC2Cc3cc(Cl)ccc3Sc3ccccc32)CC1` (stereo unspecified), the entry is “inactive”; as for `COc1ccc(NC(=S)N(CCCN2CCCC2)Cc2cccn2Cc2ccc(Cl)cc2)cc1Cl`, “inactive”.
Regarding `Cc1cccc(C)c1NC(=O)C(c1ccccc1F)n1c(=O)c(-c2ccco2)nc2ccccc21` (stereo unspecified), the IC50 was 2.81 µM.
As for `Cc1ccc(C)c(/C=C/C(=O)c2ccccc(=O)c2O)c1`, the IC50 is 5.58 µM.
As for `FC(F)(F)c1cccc(NC(=S)N(CCCN2CCCC2)Cc2cccn2Cc2ccc(Cl)cc2)c1`, the entry is “inactive”; as for `CSc1nnc(NC(=O)c2nc(S(=O)(=O)Cc3ccccc3F)ncc2Cl)s1`, 2.16 µM.
As for `CCOC(=O)c1c(C)oc2c1c(CN1CCN(CCO)CC1)c(O)c1ccccc12`, the figure is 1.81 µM; as for `CCOC(=O)N1CCN(C(=O)C[C@@H]2C[C@@]3(C(=O)OCC)CCC=C3N(Cc3ccc(Cl)cc3Cl)C2=O)CC1`, 9.78 µM.
As for `O=C(CF)N(O)c1ccc(C=Cc2ccccc2)cc1`, the figure is > 13.3 µM (inactive).
On to `Cc1ccc(/C(O)=C2/C(=O)C(=O)OC2c2ccc(Cl)cc2)cc1` (stereo unspecified), for which the IC50 was 9.38 µM.
With `N#Cc1ccc(C(C(=O)Nc2ccc3c(c2)OCCO3)n2c(=O)c(-c3ccco3)nc3ccccc32)cc1` (stereo unspecified), the IC50 was 7.22 µM.
For `O=C1NC(=O)N(Cc2ccc(F)cc2)C(=O)/C1=C\C=C\c1ccco1`, the IC50 was 1.69 µM.
Under `CCN1CCN(Cc2ccc(NC(=O)c3ccc(C)c(/C=C/c4cnc(Nc5cc(N6CCNCC6)nc(C)n5)cn4)c3)cc2C(F)(F)F)CC1` stands 3.42 µM; under `O=C(Nc1ccc2c(c1)OCCO2)C(c1ccnc2ccccc12)n1c(=O)c(-c2ccco2)nc2ccccc21` (stereo unspecified), “inactive”.
Take `C#CCN(C[C@@H]1[C@@H](OC(=O)NCC2CCCCC2)[C@@H](OC(=O)NCC2CCCCC2)Cn2c(=O)ccc(=O)n21)S(=O)(=O)c1ccc(C)cc1`: the IC50 was 4.76 µM.
Under `Cc1oc2c(c1C(=O)c1ccc(Cl)cc1)C(=O)C(=O)c1ccccc1-2` stands 3.99 µM; under `O=C1CC(c2ccc(Cl)cc2)Oc2ccc(Cl)cc21` (stereo unspecified), 2.95 µM; under `O=C(NCc1ccccc1)C(c1ccc(C(F)(F)F)cc1)n1c(=O)c(-c2ccco2)nc2ccccc21` (stereo unspecified), 1.59 µM.
As for `CN(C)CCOc1ccc(-c2c(-c3ccccc3)sc3ccccc23)cc1`, the entry is “inactive”; as for `COc1ccc(C)c2sc(N(CCN(C)C)C(=O)/C=C/c3cccs3)nc12`, “inactive”.
For `CC(=O)Oc1c(Br)cc(N(C(C)=O)S(=O)(=O)c2ccccc2)c2ccccc12`, the IC50 was 8.8 µM.
As for `O=c1c(-c2ccco2)nc2ccccc2n1C(CCc1ccccc1)c1nc2ccccc2[nH]1` (stereo unspecified), the figure is 2.32 µM.
Under `CCCc1nc(C)c2c(=O)[nH]c(-c3cc(S(=O)(=O)N4CCN(CC)CC4)ccc3OCC)nn12` stands 2.45 µM; under `CC1=CC(C)(C)Nc2ccc(OC(=O)CN3C(=O)CCC3=O)cc21`, 1.72 µM.
With `C=C1C(=O)O[C@H]2C[C@H]1[C@@H](OC(C)=O)C/C(C)=C/CC/C(C)=C\CC[C@]2(C)O`, the 50% inhibitory concentration (IC50) is 1.87 µM.
Under `Cc1cccc(C)c1NC(=O)C(c1ccc(C(F)(F)F)cc1)n1c(=O)c(-c2ccco2)nc2ccccc21` (stereo unspecified) stands 2.22 µM.
Under `Cc1cccc(C)c1NC(=O)C(c1ccncc1)n1c(=O)c(-c2ccco2)nc2ccccc21` (stereo unspecified) stands 7.15 µM; under `CCSc1nnc(NC(=O)c2nc(S(=O)(=O)Cc3ccc(F)cc3)ncc2Cl)s1`, 2.68 µM; under `CC(C)c1nnc(NC(=O)c2nc(S(=O)(=O)Cc3ccc(F)cc3)ncc2Cl)s1`, 2.83 µM.
Under `COc1ccc(/C=C\C(=O)CC(O)(c2ccccc2)C(F)(F)F)cc1` (stereo unspecified) stands 2.68 µM; under `O=C1NC(=O)N(c2ccccc2F)C(=O)/C1=C/c1ccc(Oc2ccc([N+](=O)[O-])cn2)cc1`, 2.73 µM.
With `Cc1cccc(C)c1NC(=O)C(c1ccc(C#N)cc1)n1c(=O)c(-c2ccco2)nc2ccccc21` (stereo unspecified), the IC50 is 2.66 µM.
As for `Cc1nc2c(o1)CCc1ccccc1C2N1CCN(C)CC1` (stereo unspecified), the entry is “inactive”; as for `CCC(C)NC(=O)Nc1ccc2c(c1)N(C)C(=O)c1ccccc1S2` (stereo unspecified), 3.7 µM.
As for `CCOc1cc(/C=C2\CCC/C(=C\c3cc(Cl)c(O)c(OCC)c3)C2=O)cc(Cl)c1O`, the figure is 3.88 µM.
Under `CCCCCNC(=O)C(c1cc2ccccc2o1)n1c(=O)c(-c2ccco2)nc2ccccc21` (stereo unspecified) stands 1.48 µM; under `O=C(/C=C/c1ccc(NC(=O)c2ccccc2-c2ccccc2C(=O)O)cc1)c1ccccc1`, 8.03 µM.
For the compound `O=C(/C(=C/c1ccccc1)n1cncn1)c1ccc(Cl)cc1Cl`, the IC50 is 2.3 µM.
Under `CCCCCNC(=O)C(c1ccc(C#N)cc1)n1c(=O)c(-c2ccco2)nc2ccccc21` (stereo unspecified) stands 2.98 µM; under `CC1=CC2C(C(O)CC3(C)C2CC(C)C32OCOC23COCO3)C2(C)C/C(=C\O)C(=O)C=C12` (stereo unspecified), 3.51 µM; under `CC(C)(C)NC(=O)C(c1ccc(C(F)(F)F)cc1)n1c(=O)c(-c2ccco2)nc2ccccc21` (stereo unspecified), 2.69 µM.
As for `COc1ccc(/C=C/C(=O)c2cc(F)ccc2OC(=O)c2ccc(OC)c(OC)c2)cc1OC`, the figure is 2.44 µM; as for `O=C(NC1CCCCC1)C(c1cccc2ccccc12)n1c(=O)c(-c2ccco2)nc2ccccc21` (stereo unspecified), 1.22 µM.
As to `CN(C)CCOC1(Cc2ccc(F)cc2)CCC(C(C)(C)C)CC1` (stereo unspecified), the IC50 is 9.95 µM.
Under `COC/C=C/C1=CC2=CC(=O)C(C)(OC(=O)C3CCCC3)C(=O)C2=CO1` (stereo unspecified) stands 2.45 µM; under `COc1cc(/C=C/C(=O)c2ccc(Cl)s2)cc(OC)c1O`, 4.59 µM; under `CC(=O)Oc1c(Cl)c(N2CCOCC2)c(OC(C)=O)c2ccccc12`, 4.44 µM.
Consider `O=C(NC1CCCCC1)C(c1ccc(C(F)(F)F)cc1)n1c(=O)c(-c2ccco2)nc2ccccc21` (stereo unspecified), for which the IC50 is 1.67 µM.
Under `CN(C)CCCNC(=O)c1ccc(-c2nc(-c3ccc(Cl)cc3)cs2)cc1` stands “inactive”; under `CC(C)(C)NC(=O)C(c1ccccc1)n1c(=O)c(-c2ccco2)nc2ccccc21` (stereo unspecified), 2.04 µM.
As for `CCCNC(=O)Nc1ccc2c(c1)N(C)C(=O)c1ccccc1S2`, the figure is 4.98 µM; as for `CCC(C(=O)OCCN(CC)CC)c1ccccc1` (stereo unspecified), 2.53 µM; as for `O=c1nc(/C=C/c2ccc(Cl)cc2Cl)cc(C(F)(F)F)[nH]1`, 2.94 µM.
On to `CN1CCC[C@@H]1CCO[C@](C)(c1ccccc1)c1ccc(Cl)cc1`, for which the IC50 result was “inactive”.
Under `CCCCC(=O)NC(c1cccc([N+](=O)[O-])c1)c1ccc2cccnc2c1O` (stereo unspecified) stands “inactive”.
As to `CCCCCNC(=O)C(c1cccc2ccccc12)n1c(=O)c(-c2ccco2)nc2ccccc21` (stereo unspecified), the IC50 was 2.01 µM.
As for `C#CCN(C[C@@H]1[C@@H](OC(=O)NCCCCCC)[C@@H](OC(=O)NCCCCCC)Cn2c(=O)ccc(=O)n21)S(=O)(=O)c1ccc(C)cc1`, the figure is 5.99 µM; as for `CN(C)c1ccc(Cc2cc3c(O)ccc(O)c3cc(Cc3ccc(N(C)C)cc3)c2=O)cc1`, 2.4 µM.
As for `N#Cc1ncc(Cc2ccccc2)nc1C#N`, the entry is “inactive”.
Under `Cc1ccc2nc3cc([N+](=O)[O-])cc([N+](=O)[O-])c3cc2c1` stands 0.801 µM.
